In the NIST ThermoML archive (doi:10.1021/acs.jced.9b00752):

Assay: mn = molality of the nth substance listed, in mol/kg
Settings: 100 kPa, Liquid, Vibrating tube method

O=C(O)[C@@H]1CCCN1 [L-proline] + O
mass density [kg/m3]
Settings | 273.65 K | 274.15 K | 274.65 K | 275.15 K | 275.65 K | 276.15 K | 276.65 K | 277.15 K | 277.65 K | 278.15 K
m1 = 0.0132 | 1000.34 | 1000.37 | 1000.39 | 1000.4 | 1000.41 | 1000.42 | 1000.43 | 1000.43 | 1000.43 | 1000.42
m1 = 0.0326 | 1001.02 | 1001.05 | 1001.07 | 1001.08 | 1001.09 | 1001.1 | 1001.11 | 1001.11 | 1001.1 | 1001.09
m1 = 0.0542 | 1001.77 | 1001.79 | 1001.81 | 1001.82 | 1001.84 | 1001.84 | 1001.84 | 1001.85 | 1001.84 | 1001.83
m1 = 0.0692 | 1002.29 | 1002.31 | 1002.32 | 1002.34 | 1002.34 | 1002.35 | 1002.35 | 1002.35 | 1002.34 | 1002.33
m1 = 0.0808 | 1002.69 | 1002.71 | 1002.73 | 1002.74 | 1002.75 | 1002.75 | 1002.75 | 1002.75 | 1002.74 | 1002.73
m1 = 0.1014 | 1003.41 | 1003.43 | 1003.45 | 1003.46 | 1003.46 | 1003.46 | 1003.46 | 1003.46 | 1003.45 | 1003.43
m1 = 0.1196 | 1004.09 | 1004.11 | 1004.12 | 1004.13 | 1004.13 | 1004.13 | 1004.13 | 1004.13 | 1004.12 | 1004.1
m1 = 0.1326 | 1004.5 | 1004.52 | 1004.53 | 1004.54 | 1004.54 | 1004.54 | 1004.54 | 1004.54 | 1004.52 | 1004.51
m1 = 0.1555 | 1005.27 | 1005.29 | 1005.3 | 1005.3 | 1005.3 | 1005.3 | 1005.3 | 1005.29 | 1005.28 | 1005.26
m1 = 0.1568 | 1005.41 | 1005.42 | 1005.43 | 1005.44 | 1005.44 | 1005.44 | 1005.43 | 1005.43 | 1005.41 | 1005.39
m1 = 0.1835 | 1006.23 | 1006.25 | 1006.25 | 1006.26 | 1006.26 | 1006.25 | 1006.25 | 1006.24 | 1006.22 | 1006.2
m1 = 0.2076 | 1007.04 | 1007.05 | 1007.05 | 1007.05 | 1007.05 | 1007.04 | 1007.04 | 1007.03 | 1007.01 | 1006.99
m1 = 0.2212 | 1007.72 | 1007.73 | 1007.73 | 1007.73 | 1007.72 | 1007.72 | 1007.71 | 1007.7 | 1007.68 | 1007.66
